Assay results as given in US20250382298A1, “NITROGEN-CONTAINING COMPOUND AND USE THEREOF” (SUZHOU GENHOUSE BIO CO., LTD., priority 2022, published 2025).

Columns and labels:
KIF18A = KIF18A (Homo sapiens (Human), UniProt Q8NI77); experiment: KIF18A enzymatic activity inhibition, ADP-Glo kit; format: biochemical; details: 4 nM KIF18A, 30 μM ATP
Summary of the method: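 KIF18A (1467) at 4 nM was preincubated with compound for 20 min at 37 °C in 15 mM Tris pH 7.5, 10 mM MgCl2, 0.01% Pluronic F-68. The reaction was started with 30 μM ATP and ran 15 min at room temperature.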

OVCAR3 cells = experiment: Detection of OVCAR3 cell proliferation activity by CTG method; format: cell-based; details: CellTiter-Glo, 7 days
Summary of the method: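 OVCAR3 cells (2000/well) were exposed for 7 days to compound at 10 μM to 0.026 nM, 5-fold steps, in duplicate. Viability was read as CellTiter-Glo luminescence. A plate read on the day of compound addition served as the Max value for IC50 derivation.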

[1] = Stability test in mouse liver microsomes; format: in vitro ADME, CD-1 mice; details: mouse liver microsomes 0.5 mg/mL, 1.0 μM substrate; for CLint scaled at 1 μM / half-life at 1 μM: CD-1, pH 7.4; for CLint scaled at 1 μM: read-out: MLM 0.5 CLint(liver); for half-life at 1 μM: read-out: MLM 0.5 T½
Description: The phase I metabolic stability of the compounds in liver microsomes of CD-1 mice, Sprague-Dawley rats, beagle dogs, cynomolgus monkeys, and humans was assessed.
The animal and human liver microsomes used in the test system were purchased from Xenotech, Corning, or other qualified suppliers and stored in a freezer at a temperature below −60° C. prior to use.
The test samples and control compounds were separately incubated with animal and human liver microsomes at 37±1° C. for a period of incubation time up to 60 min. The samples were removed at the indicated time points, and the reaction was stopped with acetonitrile or another organic solvent containing an internal standard. After centrifugation, the resulting supernatants were assayed by the liquid chromatography-tandem mass spectrometry (LC-MS/MS) method.
73.21 g of dipotassium hydrogen phosphate trihydrate and 10.78 g of potassium dihydrogen phosphate were dissolved in 4000 mL of ultrapure water. The solution was adjusted to pH 7.40±0.10 with 10% phosphoric acid or 1 M potassium hydroxide to make a final concentration of 100 mM.
The test sample powder was prepared into a stock solution at a certain concentration with DMSO or another organic solvent, which was then further diluted with a suitable organic solvent.
Microsomes of each species were diluted into a 2× working solution with a 100 mM potassium phosphate buffer. The final concentration of the microsomes in the reaction system was 0.5 mg/mL.
An appropriate amount of nicotinamide adenine dinucleotide phosphate (NADP) and isocitric acid (ISO) powder was weighed out, dissolved in a magnesium chloride solution, and shaken and mixed well. An appropriate amount of isocitrate dehydrogenase (IDH) was added, and the mixture was mixed well by gently turning upside down. The final concentrations in the reaction system were: 1 mM NADP, 1 mM magnesium chloride, 6 mM ISO, and 1 unit/mL IDH.
The stop solution was prepared with acetonitrile or another organic solvent containing an internal standard (tolbutamide or another suitable compound). The prepared stop solution was stored in a freezer at 2-8° C.
Incubation was performed in a 96-well plate. Eight incubation plates were prepared and designated T0, T5, T15, T30, T45, T60, Blank60, and NCF60, respectively. The first 6 plates corresponded to reaction time points of […], respectively. No test sample or control compound was added to the Blank60 plate, and samples were taken after 60 min of incubation. In the NCF60 plate, incubation was performed for 60 min using the potassium phosphate buffer instead of the NADPH regeneration system solution. Three replicates were made for samples in all conditions.
The microsomes and the test sample or control compound were mixed, and then the incubation plates Blank60, T5, T15, T30, T45, and T60 except for TO and NCF60 were placed in a 37° C. water bath for pre-incubation for about 10 min. In the incubation plate T0, a stop solution was first added, followed by addition of the NADPH regeneration system working solution, and 98 μL of the potassium phosphate buffer was added to each sample well of the incubation plate NCF60 to initiate the reaction. After the pre-incubation of the incubation plates Blank60, T5, T15, T30, T45, and T60 was completed, 98 μL of the NADPH regeneration system working solution was added to each sample well to initiate the reaction. The reaction temperature was 37±1° C., the final volume of the reaction was 200 μL, and the reaction system included 0.5 mg/mL microsomes, 1.0 μM substrate, 1 mM NADP, 6 mM ISO, and 1 unit/ml IDH.
At 5 min, 15 min, […], 45 min, and 60 min, a cold stop solution containing an internal standard was added to the reaction plate to stop the reaction.
All the reaction plates after the reaction was stopped were shaken well and centrifuged at 3220×g at 4° C. for 20 min. After the supernatant was diluted at a certain ratio, LC-MS/MS analysis was performed. […]

Chain of KIF18A (Q8NI77 1-467): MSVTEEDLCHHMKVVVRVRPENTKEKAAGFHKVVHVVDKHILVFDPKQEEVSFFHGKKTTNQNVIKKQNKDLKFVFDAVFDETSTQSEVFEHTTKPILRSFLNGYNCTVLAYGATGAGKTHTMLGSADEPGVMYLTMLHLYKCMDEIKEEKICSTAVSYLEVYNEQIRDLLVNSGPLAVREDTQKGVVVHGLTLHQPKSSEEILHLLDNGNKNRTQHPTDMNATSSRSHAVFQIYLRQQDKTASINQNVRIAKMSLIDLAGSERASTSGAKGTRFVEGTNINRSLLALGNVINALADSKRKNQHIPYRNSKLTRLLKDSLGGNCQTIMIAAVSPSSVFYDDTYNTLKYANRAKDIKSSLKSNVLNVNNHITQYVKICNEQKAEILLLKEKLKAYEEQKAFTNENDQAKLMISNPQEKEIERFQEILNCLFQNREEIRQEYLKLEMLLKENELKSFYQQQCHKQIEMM

SMILES	IC50 (KIF18A) [nM]	IC50 (OVCAR3 cells; Homo sapiens, OVCAR-3, 168 h) [nM]	CLint scaled at 1 μM [1] [mL/min/kg]	half-life at 1 μM [1] [h]	IC50 (OVCAR3 cells) [nM]	MLM 0.5 CLint(liver) [1] [mL/min/kg]	MLM 0.5 T½ [1] [h]
O=C(Nc1cn2ccnc2c(N2CCC(F)(F)CC2)n1)c1ccc(NS(=O)(=O)CCO)cc1N1CCC2(CC1)CC2 [Compound 8]	21.3	5.8	219	0.418			
O=C(Nc1cc2ccsc2c(N2CCC(F)(F)CC2)n1)c1ccc(NS(=O)(=O)CCO)cc1N1CCC2(CC1)CC2 [Compound 15]	126	24	50.6	1.81			
Cc1cc(NC(=O)c2ccc(NS(=O)(=O)CCO)cc2N2CC3CCC(C3)C2)nc(N2CCC(F)(F)CC2)n1 [Compound 3]	19.8	85					
O=C(Nc1cc2ccccc2c(N2CCC(F)(F)CC2)n1)c1ccc(NS(=O)(=O)CCO)cc1N1CCC2(CC1)CC2 [Compound 6]	95.6	118	< 38	> 2.42			
CS(=O)(=O)Nc1ccc(C(=O)Nc2cn3ccnc3c(N3CCC(F)(F)CC3)n2)c(N2CCC3(CC2)CC3)c1 [Compound 10]	25.7	16	182	0.502			
O=C(Nc1cn2cnnc2c(N2CCC(F)(F)CC2)n1)c1ccc(NS(=O)(=O)CCO)cc1N1CCC2(CC1)CC2 [Compound 24]	3.7				17.8	64.7	1.41
O=C(Nc1cc2c(c(N3CCC(F)(F)CC3)n1)COC2)c1ccc(NS(=O)(=O)CCO)cc1N1CCC2(CC1)CC2 [Compound 14]	28.7	5.6	54.1	1.69			

Continued, in another order:

IC50 (KIF18A) [nM]	IC50 (OVCAR3 cells; Homo sapiens, OVCAR-3, 168 h) [nM]	CLint scaled at 1 μM [1] [mL/min/kg]	half-life at 1 μM [1] [h]	SMILES	IC50 (OVCAR3 cells) [nM]	MLM 0.5 CLint(liver) [1] [mL/min/kg]	MLM 0.5 T½ [1] [h]
		2.3	40.3	CS(=O)(=O)Nc1ccc(C(=O)Nc2cc3cc[nH]c3c(N3CCC(F)(F)CC3)n2)c(N2CCC3(CC2)CC3)c1 [Compound 47]			
		14.3	6.34	O=C(Nc1cn2c(F)cnc2c(N2CCC(F)(F)CC2)n1)c1ccc(NS(=O)(=O)CCO)cc1N1CCC2(CC1)CC2 [Compound 34]			
3.6	6.4	< 38	> 2.42	O=C(Nc1cn2ncnc2c(N2CCC(F)(F)CC2)n1)c1ccc(NS(=O)(=O)CCO)cc1N1CCC2(CC1)CC2 [Compound 23]			
		< 38	> 2.42	O=C(Nc1cc2cccnc2c(N2CCC(F)(F)CC2)n1)c1ccc(NS(=O)(=O)CCO)cc1N1CCC2(CC1)CC2 [Compound 21]			
16.4	6.3			O=C(Nc1cn2ccnc2c(N2CCC(F)(F)CC2)n1)c1ccc(NS(=O)(=O)CCO)cc1N1CC2CCC(C2)C1 [Compound 17]			
26.4	11.2			O=C(Nc1cc2cc[nH]c2c(N2CCC(F)(F)CC2)n1)c1ccc(NS(=O)(=O)CCO)cc1N1CCC2(CC1)CC2 [Compound 22]			
		52.3	1.75	CS(=O)(=O)Nc1ccc(C(=O)Nc2cn3ccnc3c(N3CCC(F)(F)CC3)n2)c(N2CC3CCC(C3)C2)c1 [Compound 19]			
